Assay results reported in US6375979B2 (Somerset Pharmaceuticals, Inc., priority 1995, dated 2002).
Where “and” joins values, the source holds several entries; their conditions need not be identical. Identical values can stand only once. Like-named read-outs stand apart in the source and are kept apart here.

Tests used:
[1] = test system: TH positive cells in cultured E-14 embryonic mesencephalic cells
[2] = test system: cultured rat mesencephalic cells; assay: Medium change (glutamate receptor dependent) model of cell death: TH positive cells; conditions: medium change model
Method: In these experiments, cells were plated and allowed to stabilize for several days.

desmethylselegiline [R(−)DMS]
Survival of TH positive cells, % cont. ([1]; 0.5 μM): 226.62%
Survival of TH positive cells, Mean cells/cm^2 ([1]; 0.5 μM): 246.00 ± 22.76 cells/cm^2
Survival of TH positive cells, % cont. ([1]; 5 μM): 329.76%
Survival of TH positive cells, Mean cells/cm^2 ([1]; 5 μM): 357.95 ± 25.76 cells/cm^2
Survival of TH positive cells, % cont. ([1]; 50 μM): 360.76%
Survival of TH positive cells, Mean cells/cm^2 ([1]; 50 μM): 391.60 ± 34.93 cells/cm^2
TH Immunochemistry, % control, Mean ([2]; 0.5 μM): 123.9%
TH Immunochemistry, % control, individual cultures ([2]; 0.5 μM): 129.0% and 117.6% and 125.2%
TH Immunochemistry, cells/cm^2, Mean ([2]; 0.5 μM): 335.63 cells/cm^2
TH Immunochemistry, cells/cm^2, individual cultures ([2]; 0.5 μM): 340.0 cells/cm^2 and 310.0 cells/cm^2 and 330.0 cells/cm^2 and 362.5 cells/cm^2
TH Immunochemistry, % control, Mean ([2]; 5.0 μM): 132.1%
TH Immunochemistry, % control, individual cultures ([2]; 5.0 μM): 122.3% and 129.9% and 137.5% and 138.5%
TH Immunochemistry, cells/cm^2, Mean ([2]; 5.0 μM): 348.13 cells/cm^2
TH Immunochemistry, cells/cm^2, individual cultures ([2]; 5.0 μM): 322.5 cells/cm^2 and 342.5 cells/cm^2 and 362.5 cells/cm^2 and 365.0 cells/cm^2
TH Immunochemistry, % control, Mean ([2]; 50 μM): 144.9%
TH Immunochemistry, % control, individual cultures ([2]; 50 μM): 117.6% and 167.9% and 144.1% and 149.8%
TH Immunochemistry, cells/cm^2, Mean ([2]; 50 μM): 381.88 cells/cm^2
TH Immunochemistry, cells/cm^2, individual cultures ([2]; 50 μM): 310.0 cells/cm^2 and 442.5 cells/cm^2 and 380.0 cells/cm^2 and 395.0 cells/cm^2
